Results on 14 compounds are retold here after patent US20190359645A1, “2'3'-CYCLIC DINUCLEOTIDES COMPRISING CARBOCYCLIC NUCLEOTIDE” (Institute of Organic Chemistry and Biochemistry ASCR, V.V.I., priority 2018, published 2019).

Molecules are shown by their SMILES. Read-outs that look alike come from different tables or passages of the source.

In this experiment the target is T1, AQ STING (G230A-R293Q) (Homo sapiens, UniProt Q86WV6, G230A/H232R/R293Q).
T1 construct: truncated human WT STING or AQ STING (amino acid residues 140-343); 8xHis (N, cleaved yes); SUMO (N, cleaved yes); made in house; host or cells: E. coli Rosetta-gami B (DE3)
As to the kind of experiment: Differential scanning fluorimetry (DSF) with AQ STING. The conditions noted are these: for ΔTm at 150 µM: read-out: DSF ΔTm AQ STING. Format: binding. An excerpt:
Both WT and AQ human STING (G230A-R^293Q) cDNA were amplified by the use of PCR (Phusion® High-Fidelity DNA Polymerase, cat. # M0530S, NEB, Ipswich, USA) using oligonucleotides hSTING140-BamH-For ([…]) (SEQ ID NO:5) and hSTING379-Not-Rev3 ([…]) (SEQ ID NO:6) from pUNOI-hSTING-WT (cat. # punol-hstingwt, InvivoGen, San Diego, USA) and pUNO1-hSTING-HAQ plasmids (punol-hsting-haq, InvivoGen, San Diego, USA). Purified PCR products were cleaved with restriction enzymes BamHI (cat. # R^0136S, NEB, Ipswich, USA) and NotI (cat. # R^0189S, NEB, Ipswich, USA) and cloned into the pSUMO vector linearized with the identical enzymes. Plasmid pSUMO was created by introducing 8-His-SUMO sequence between NdeI and BamHI sites of pHis-parallel2 plasmid (Clontech, Moutain View, USA). pSUMO-STING WT or pSUMO-STING AQ plasmids thus encoded truncated human WT STING or AQ STING (amino acid residues 140-343) with N-terminal 8×His and SUMO tag.
The recombinant WT STING and AQ STING proteins were overexpressed in Rosetta-gami B (DE3) competent cells (cat. #71136-3, Merck Millipore, Billerica, USA). Bacterial pellets were re-suspended in ice-cold lysis buffer containing 50 mmol·l^−1 TrisCl (cat. # T1503, Sigma Aldrich, Czech Republic) pH 8.0, 300 mmol·l^−1 NaCl, 3 mmol·l^−1 (3-mercaptoethanol (cat. # M6250, Sigma Aldrich, Czech Republic), 10% glycerol (cat. #G5516, Sigma Aldrich, Czech Republic) and 20 mmol·l^−1 imidazole (cat. #15513, Sigma Aldrich, Czech Republic) using Dounce homogenizer. DNase I (cat. # D5025, Sigma Aldrich, Czech Republic) and RNase A (cat. # R^6513, Sigma Aldrich, Czech Republic) were added (final concentration 50 μg/ml) together with MgCl2 (final concentration 5 mmol·l^−1) to the homogenate and bacteria were lysed using French Press G-M™ High-Pressure Cell Press Homogenizer (1500 psi, 3 cycles). Lysate was spun 30,000 g for 20 minutes and supernatant was gently stirred with Ni-NTA resin (cat. #745400.25 Macherey-Nagel, Duren, Germany) for 30 minutes. The resin was poured into a chromatography column, washed with 50 ml buffer A (50 mmol·l^−1 TrisCl (pH 8.0), 800 mmol·l^−1 NaCl, 3 mmol·l^−1β-mercaptoethanol; 10% glycerol; 20 mmol·l^−1 imidazole) and 8-His-SUMO tagged STING proteins were eluted with 15 ml buffer A containing 300 mmol·l^−1 imidazole. The eluted proteins were cleaved with recombinant SUMO protease (80 pig/ml of protein solution, cat. #12588018, ThermoFisher, Waltham, USA). The proteins were further purified by size exclusion chromatography using HiLoad 16/60 Superdex 75 (cat. #28989333, GE Healthcare Bio-Sciences, Pittsburgh, USA) in 50 mmol·l^−1 Tris C1 buffer pH 7.4 containing 150 mmol·l^−1 NaCl, and 10% glycerol. Proteins were concentrated with Amicon® Ultra-15 10 K device (cat. # UFC901008, Merck Millipore, Billerica, USA) and flash frozen in liquid N2.
WT and AQ allelic forms of STING protein were diluted to the final concentration 0.1 mg/ml in 100 mmol·l^−1 TrisCl buffer pH 7.4 containing, 150 mmol·l^−1 NaCl, 1:500 SYPRO Orange (cat. # S6650, ThermoFisher, Waltham, USA) and 150 μM CDN or water. 20 μL solutions of the reaction mixtures were pipetted in triplicates into 96 well optical reaction plates and thermal denaturation of samples were performed on real time PCR cycler (LightCycler® 480 Instrument II—Roche, Basel, Switzerland). The first derivative of the thermal denaturation curves was performed to calculate denaturing temperatures of STING-CDN complexes and STING apoproteins. The thermal shift for each CDN was calculated by subtracting the average denaturing temperature of STING apoprotein from the average denaturing temperature of STING CDN complex.
In general terms: DSF heats the sample and reads unfolding from a dye or from intrinsic fluorescence.

Where [1] appears, read: thermal shift, truncated human AQ STING 0.1 mg/ml, 150 μM CDN.

T1 sequence (Q86WV6 140-343 G230A/H232R/R293Q): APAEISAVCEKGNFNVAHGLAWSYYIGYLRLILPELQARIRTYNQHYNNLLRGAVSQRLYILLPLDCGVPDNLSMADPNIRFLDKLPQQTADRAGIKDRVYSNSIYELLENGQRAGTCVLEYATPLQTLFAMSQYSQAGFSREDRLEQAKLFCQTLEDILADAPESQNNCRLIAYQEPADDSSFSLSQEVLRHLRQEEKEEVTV

`Nc1nc2c(ncn2[C@@H]2C[C@@H]3COP(=O)(O)OC4C(N)[C@H](n5cnc6c(N)ncnc65)O[C@@H]4COP(=O)(O)OC2C3O)c(=O)[nH]1` (stereo partly drawn) [Compound 109, (6R,8R,15R,17R)-9-amino-17-(2-amino-6-oxo-6,9-dihydro-1H-purin-9-yl)-8-(6-amino-9H-purin-9-yl)-3,12,18-trihydroxy-2,4,7,11,13-pentaoxa-3λ^5,12λ^5-diphosphatricyclo[13.2.1.0^6,10]octadecane-3,12-dione]: the ΔTm at 150 µM under setting [1] stood at 12.8 °C.
As for `CSc1nc(N)nc2c1ncn2[C@@H]1O[C@@H]2COP(=O)(O)OC3C(O)[C@@H](COP(=O)(O)OC2C1O)C[C@H]3n1cnc2c(=O)[nH]c(N)nc21` (stereo partly drawn) [Compound 112, (6R,8R,15R,17R)-8-[2-amino-6-(methylsulfanyl)-9H-purin-9-yl]-17-(2-amino-6-oxo-6,9-dihydro-1H-purin-9-yl)-3,9,12,18-tetrahydroxy-2,4,7,11,13-pentaoxa-3λ^5,12λ^5-diphosphatricyclo[13.2.1.0^6,10]octadecane-3,12-dione], the ΔTm at 150 µM under setting [1] came to 4.7 °C.
For `Nc1ncnc2c1ncn2[C@@H]1O[C@@H]2COP(=O)(S)O[C@@H]3[C@H](F)[C@@H](COP(=O)(S)O[C@H]2[C@H]1F)C[C@H]3n1cnc2c(=O)[nH]cnc21` (single isomer, unassigned) [Compound 128c], the “DSF ΔTm AQ STING” value under setting [1] was found to be 18.2 °C.
Regarding `Cc1cn([C@@H]2O[C@@H]3COP(=O)(O)OC4C(O)[C@@H](COP(=O)(O)OC3C2O)C[C@H]4n2cnc3c(=O)[nH]c(N)nc32)c2ncnc(N)c12` (stereo partly drawn) [Compound 113, (6R,8R,15R,17R)-8-{4-amino-5-methyl-7H-pyrrolo[2,3-d]pyrimidin-7-yl}-17-(2-amino-6-oxo-6,9-dihydro-1H-purin-9-yl)-3,9,12,18-tetrahydroxy-2,4,7,11,13-pentaoxa-3λ^5,12λ^5-diphosphatricyclo[13.2.1.0^6,10]octadecane-3,12-dione], the shift in melting temperature (ΔTm) at 150 µM under setting [1] was 11.6 °C.
On the same count and under the same terms, with `Nc1nc(N)c2ncn([C@@H]3O[C@@H]4COP(=O)(O)OC5C(O)[C@@H](COP(=O)(O)OC4C3F)C[C@H]5n3cnc4c(=O)[nH]c(N)nc43)c2n1` (stereo partly drawn) [Compound 117, (6R,8R,15R,17R)-17-(2-amino-6-oxo-6,9-dihydro-1H-purin-9-yl)-8-(2,6-diamino-9H-purin-9-yl)-9-fluoro-3,12,18-trihydroxy-2,4,7,11,13-pentaoxa-3λ^5,12λ^5-diphosphatricyclo[13.2.1.0^6,10]octadecane-3,12-dione] the figure was 17 °C; with `Nc1ncnc2c1ncn2[C@@H]1O[C@@H]2COP(=O)(O)O[C@@H]3[C@H](F)[C@@H](COP(=O)(O)O[C@H]2[C@H]1F)C[C@H]3n1cnc2c(=O)[nH]cnc21` [Compound 127], 16.8 °C.
Same read-out and setting: with `Cc1cn([C@@H]2O[C@@H]3COP(=O)(O)OC4C(O)[C@@H](COP(=O)(O)OC3C2O)C[C@H]4n2cnc3c(=O)[nH]cnc32)c2ncnc(N)c12` (stereo partly drawn) [Compound 123, (6R,8R,15R,17R)-8-{4-amino-5-methyl-7H-pyrrolo[2,3-d]pyrimidin-7-yl}-3,9,12,18-tetrahydroxy-17-(6-oxo-6,9-dihydro-1H-purin-9-yl)-2,4,7,11,13-pentaoxa-3λ^5,12λ^5-diphosphatricyclo[13.2.1.0^6,10]octadecane-3,12-dione] the figure was 12.1 °C; with `Nc1nc2c(ncn2[C@@H]2C[C@@H]3COP(=O)(O)OC4C(O)[C@H](n5cnc6c(=O)[nH]cnc65)O[C@@H]4COP(=O)(O)OC2C3O)c(=O)[nH]1` (stereo partly drawn) [Compound 104, (6R,8R,15R,17R)-17-(2-amino-6-oxo-6,9-dihydro-1H-purin-9-yl)-3,9,12,18-tetrahydroxy-8-(6-oxo-6,9-dihydro-1H-purin-9-yl)-2,4,7,11,13-pentaoxa-3λ^5,12λ^5-diphosphatricyclo[13.2.1.0^6,10]octadecane-3,12-dione], 13.3 °C; with `Nc1ncc2ncn([C@@H]3O[C@@H]4COP(=O)(O)OC5C(O)[C@@H](COP(=O)(O)OC4C3O)C[C@H]5n3cnc4c(=O)[nH]cnc43)c2n1` (stereo partly drawn) [Compound 119, (6R,8R,15R,17R)-8-(2-amino-9H-purin-9-yl)-3,9,12,18-tetrahydroxy-17-(6-oxo-6,9-dihydro-1H-purin-9-yl)-2,4,7,11,13-pentaoxa-3λ^5,12λ^5-diphosphatricyclo[13.2.1.0^6,10]octadecane-3,12-dione], 13.7 °C.
The same measure, in the same setting: in the case of `CSc1ncnc2c1ncn2[C@@H]1O[C@@H]2COP(=O)(O)OC3C(O)[C@@H](COP(=O)(O)OC2C1O)C[C@H]3n1cnc2c(=O)[nH]c(N)nc21` (stereo partly drawn) [Compound 110, (6R,8R,15R,17R)-17-(2-amino-6-oxo-6,9-dihydro-1H-purin-9-yl)-3,9,12,18-tetrahydroxy-8-[6-(methylsulfanyl)-9H-purin-9-yl]-2,4,7,11,13-pentaoxa-3λ^5,12λ^5-diphosphatricyclo[13.2.1.0^6,10]octadecane-3,12-dione] it was 10.1 °C; in that of `Nc1nc(N)c2ncn([C@@H]3O[C@@H]4COP(=O)(O)OC5C(O)[C@@H](COP(=O)(O)OC4C3O)C[C@H]5n3cnc4c(=O)[nH]c(N)nc43)c2n1` (stereo partly drawn) [Compound 105, (6R,8R,15R,17R)-17-(2-amino-6-oxo-6,9-dihydro-1H-purin-9-yl)-8-(2,6-diamino-9H-purin-9-yl)-3,9,12,18-tetrahydroxy-2,4,7,11,13-pentaoxa-3λ^5,12λ^5-diphosphatricyclo[13.2.1.0^6,10]octadecane-3,12-dione], 13.2 °C; in that of `Nc1nc2c(ncn2[C@@H]2C[C@@H]3COP(=O)(O)OC4C(O)[C@H](n5nnc6c(N)ncnc65)O[C@@H]4COP(=O)(O)OC2C3O)c(=O)[nH]1` (stereo partly drawn) [Compound 116, (6R,8R,15R,17R)-8-{7-amino-3H-[1,2,3]triazolo[4,5-d]pyrimidin-3-yl}-17-(2-amino-6-oxo-6,9-dihydro-1H-purin-9-yl)-3,9,12,18-tetrahydroxy-2,4,7,11,13-pentaoxa-3λ^5,12λ^5-diphosphatricyclo[13.2.1.0^6,10]octadecane-3,12-dione], 8.9 °C.
As to `Nc1nc2c(ncn2[C@@H]2C[C@@H]3COP(=O)(O)OC4C(O)[C@H](n5cnc6c(N)ncnc65)O[C@@H]4COP(O)(=S)OC2C3O)c(=O)[nH]1` (stereo partly drawn) [Compound 101, 2-amino-9-[(6R,8R,15R,17R)-8-(6-amino-9H-purin-9-yl)-3,9,12,18-tetrahydroxy-12-oxo-3-sulfanylidene-2,4,7,11,13-pentaoxa-3λ^5,12λ^5-diphosphatricyclo[13.2.1.0^6,10]octadecan-17-yl]-6,9-dihydro-1H-purin-6-one], the thermal shift (ΔTm) at 150 µM amounted to 19.8 °C.
`Nc1ncnc2c1ncn2[C@@H]1O[C@@H]2COP(=O)(S)O[C@@H]3[C@H](F)[C@@H](COP(=O)(S)O[C@H]2[C@H]1F)C[C@H]3n1cnc2c(=O)[nH]cnc21` (single isomer, unassigned) [Compound 128b]: the “DSF ΔTm AQ STING” value under setting [1] was determined as 13.8 °C.

A word on the ΔTm: it is the shift of the melting midpoint relative to a reference.
